IC50 data for 3 molecules are collected here from ChEMBL document CHEMBL3804826, “MALT1 Inhibitors May Potentially Treat Lymphomas and Autoimmune Disorders” (ACS Med Chem Lett, 2016).

Each structure is given as a SMILES string.

One may read the IC50 as the concentration that inhibits the measured activity by half.

Experiment [1] concerns the target T1, Mucosa-associated lymphoid tissue lymphoma translocation protein 1 (Homo sapiens, UniProt Q9UDY8).
T1 sequence (Q9UDY8 whole entry): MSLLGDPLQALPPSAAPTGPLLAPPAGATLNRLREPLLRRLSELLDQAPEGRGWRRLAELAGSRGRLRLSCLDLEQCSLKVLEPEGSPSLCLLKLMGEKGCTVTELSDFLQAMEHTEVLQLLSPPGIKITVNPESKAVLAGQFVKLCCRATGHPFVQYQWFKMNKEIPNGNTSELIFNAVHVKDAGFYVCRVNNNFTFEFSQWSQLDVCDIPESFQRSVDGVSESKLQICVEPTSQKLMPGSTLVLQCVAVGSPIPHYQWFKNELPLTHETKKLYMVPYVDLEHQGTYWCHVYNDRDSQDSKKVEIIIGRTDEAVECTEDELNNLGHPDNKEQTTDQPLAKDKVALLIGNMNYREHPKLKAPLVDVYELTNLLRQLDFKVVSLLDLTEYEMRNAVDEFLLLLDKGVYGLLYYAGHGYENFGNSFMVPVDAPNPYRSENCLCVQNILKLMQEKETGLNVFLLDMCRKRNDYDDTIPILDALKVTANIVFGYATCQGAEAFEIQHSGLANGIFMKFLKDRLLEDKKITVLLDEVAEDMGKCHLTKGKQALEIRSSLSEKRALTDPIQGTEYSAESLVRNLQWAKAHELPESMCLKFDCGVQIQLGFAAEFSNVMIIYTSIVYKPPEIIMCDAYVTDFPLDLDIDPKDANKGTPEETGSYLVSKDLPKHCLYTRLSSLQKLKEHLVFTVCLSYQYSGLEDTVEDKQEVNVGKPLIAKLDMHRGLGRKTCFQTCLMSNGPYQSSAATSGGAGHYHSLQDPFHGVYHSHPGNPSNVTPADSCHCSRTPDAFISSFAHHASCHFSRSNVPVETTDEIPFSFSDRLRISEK
The experiment is described as follows: Inhibition of MALT1 (unknown origin) expressed in human Jurkat Clone K22 29Q_H23 cells assessed as IL2 production preincubated for 30 mins followed by PMA stimulation for 5.5 hrs by luciferase reporter gene assay. It is filed as cell-based. Background: In a reporter assay the amount or activity of a reporter protein is the signal.

Experiment [2] addresses Baculoviral IAP repeat-containing protein 3/Mucosa-associated lymphoid tissue lymphoma translocation protein 1 (Homo sapiens, UniProt Q13489+Q9UDY8). The experiment is described as follows: Inhibition of cIAP2-MALT1 (unknown origin) expressed in HEK293 cells assessed as inhibition of NFkappaB signaling after 24 hrs by luciferase reporter gene assay. It is filed as cell-based.

Sequence of Baculoviral IAP repeat-containing protein 3/Mucosa-associated lymphoid tissue lymphoma translocation protein 1 (Q13489 whole entry, one chain of several): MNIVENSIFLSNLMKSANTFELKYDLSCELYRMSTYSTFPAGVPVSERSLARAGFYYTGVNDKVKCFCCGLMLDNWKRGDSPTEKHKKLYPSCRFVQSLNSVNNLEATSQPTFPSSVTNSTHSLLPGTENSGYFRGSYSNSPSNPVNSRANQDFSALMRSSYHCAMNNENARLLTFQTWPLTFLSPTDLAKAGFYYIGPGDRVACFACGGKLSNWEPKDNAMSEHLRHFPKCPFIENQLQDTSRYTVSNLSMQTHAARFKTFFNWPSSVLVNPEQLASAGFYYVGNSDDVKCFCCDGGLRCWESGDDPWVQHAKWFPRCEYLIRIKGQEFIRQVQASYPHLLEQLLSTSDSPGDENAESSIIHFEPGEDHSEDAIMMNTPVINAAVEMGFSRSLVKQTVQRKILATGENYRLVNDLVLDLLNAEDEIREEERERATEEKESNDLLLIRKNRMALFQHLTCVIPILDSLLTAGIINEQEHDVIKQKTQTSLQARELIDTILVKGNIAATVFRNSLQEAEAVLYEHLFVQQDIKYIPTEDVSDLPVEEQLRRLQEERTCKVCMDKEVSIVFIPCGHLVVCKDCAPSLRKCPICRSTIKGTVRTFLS

Regarding `CC(C)c1c(NC(=O)Nc2cnc(N3CCCS3(=O)=O)c(C(F)(F)F)c2)cnc2cc(Cl)nn12`, the results for the IC50 in experiment [1] and in experiment [2] were 248 nM and 54 nM, respectively.
For `CO[C@@H](C)c1c(NC(=O)Nc2cncc(C(F)(F)F)c2)cnc2cc(C)nn12` the same measures were 52 nM and 132 nM.
For `COCC(c1c(NC(=O)Nc2cnc(-n3nccn3)c(Cl)c2)cnc2cc(Cl)nn12)C1CC1` (stereo unspecified) the same measures were 28 nM and 84 nM.
